Patent publication US8513270B2, “Substituted heterocycles as Janus kinase inhibitors” (Incyte Corporation, priority 2006, dated 2013)
Counter-ions that a name gives are not always drawn.

How the values were obtained:
[1] = biological target: T1, human JAK2 (a.a. 828-1132) (Homo sapiens, UniProt O60674); test: In vitro JAK kinase assay (HTRF), JAK2; assay type: biochemical; details: JAK2, 30 μM ATP; read-out: EXAMPLE A HTS-JAK2 HTRF-2 IC50
T1 construct: JAK2 (a.a. 828-1132); His tag (N); made in house; host or cells: insect cells (baculovirus)
Procedure: (§1) Compounds herein were tested for inhibitory activity of JAK targets according to the following in vitro assay described in Park et al., Analytical Biochemistry 1999, 269, 94-104. The catalytic domains of human JAK1 (a.a. 837-1142), JAK2 (a.a. 828-1132) and JAK3 (a.a. 781-1124) with an N-terminal His tag were expressed using baculovirus in insect cells and purified. The catalytic activity of JAK1, JAK2 or JAK3 was assayed by measuring the phosphorylation of a biotinylated peptide. The phosphorylated peptide was detected by homogenous time resolved fluorescence (HTRF). IC50s of compounds were measured for each kinase in the reactions that contain the enzyme, ATP and 500 nM peptide in 50 mM Tris (pH 7.8) buffer with 100 mM NaCl, 5 mM DTT, and 0.1 mg/mL (0.01%) BSA. The ATP concentration in the reactions was 90 μM for JAK1, 30 μM for JAK2 and 3 μM for JAK3. Reactions were carried out at room temperature for 1 hr and then stopped with 20 μL 45 mM EDTA, 300 nM SA-APC, 6 nM Eu—Py20 in assay buffer (Perkin Elmer, Boston, Mass.). Binding to the Europium labeled antibody took place for 40 minutes and HTRF signal was measured on a Fusion plate reader (Perkin Elmer, Boston, Mass.).

[2] = biological target: T2, human JAK1 (a.a. 837-1142) (Homo sapiens, UniProt P23458); test: In vitro JAK kinase assay (HTRF), JAK1; assay type: biochemical; details: JAK1, 90 μM ATP; read-out: EXAMPLE A JAK2-JAK1 HTRF-2 IC50
T2 construct: human JAK1 (a.a. 837-1142); His tag (N); made in house; host or cells: insect cells (baculovirus)
Procedure: as §1

[3] = biological target: T3, human JAK3 (a.a. 781-1124) (Homo sapiens, UniProt P52333); test: In vitro JAK kinase assay (HTRF), JAK3; assay type: biochemical; details: JAK3, 3 μM ATP; read-out: EXAMPLE A JAK2-JAK3 HTRF-2 IC50
T3 construct: JAK3 (a.a. 781-1124); His tag (N); made in house; host or cells: insect cells (baculovirus)
Procedure: as §1

TF1-BCRABL1 cells = TF1-BCRABL1 cells (Homo sapiens, UniProt P00519); test: ABL1 cell based assay: viability of ABL1-dependent cell line (CellTiter-Glo); details: 72 hours, cell viability; read-out: EXAMPLE F JAK2-TF1-BCRABL1 IC50
Procedure: One or more compounds herein were tested for inhibitory activity of ABL1 targets according to at least one of the following cellular assays.
Cancer cell lines dependent on ABL1 kinase activity for proliferation and/or survival were plated at 3000 cells per well (96 well plate format) in RPMI 1640, and 10% FBS. Compounds were added to the cells in DMSO/media (final concentration 0.2% DMSO) and incubated for 72 hours at 37° C., 5% CO2. The effect of compound on cell viability was assessed using the CellTiter-Glo Luminescent Cell Viability Assay (Promega) followed by TopCount (Perkin Elmer, Boston, Mass.) quantitation. ABL1-dependent cell lines can include those naturally dependent on ABL1 activity or those engineered to be dependent on ABL1 activity (e.g. BaF/3 cells). The latter can be generated using wild-type ABL1 or mutant ABL1 (such as T315I ABL1) so that the activity of compounds can be assessed against different variants of the ABL1 kinase. Potential off-target effects of compounds were measured in parallel using a non-ABL1 driven cell line with the same assay readout. […] All experiments were performed in duplicate or greater.

Sequence of TF1-BCRABL1 cells (P00519 whole entry, change not shown): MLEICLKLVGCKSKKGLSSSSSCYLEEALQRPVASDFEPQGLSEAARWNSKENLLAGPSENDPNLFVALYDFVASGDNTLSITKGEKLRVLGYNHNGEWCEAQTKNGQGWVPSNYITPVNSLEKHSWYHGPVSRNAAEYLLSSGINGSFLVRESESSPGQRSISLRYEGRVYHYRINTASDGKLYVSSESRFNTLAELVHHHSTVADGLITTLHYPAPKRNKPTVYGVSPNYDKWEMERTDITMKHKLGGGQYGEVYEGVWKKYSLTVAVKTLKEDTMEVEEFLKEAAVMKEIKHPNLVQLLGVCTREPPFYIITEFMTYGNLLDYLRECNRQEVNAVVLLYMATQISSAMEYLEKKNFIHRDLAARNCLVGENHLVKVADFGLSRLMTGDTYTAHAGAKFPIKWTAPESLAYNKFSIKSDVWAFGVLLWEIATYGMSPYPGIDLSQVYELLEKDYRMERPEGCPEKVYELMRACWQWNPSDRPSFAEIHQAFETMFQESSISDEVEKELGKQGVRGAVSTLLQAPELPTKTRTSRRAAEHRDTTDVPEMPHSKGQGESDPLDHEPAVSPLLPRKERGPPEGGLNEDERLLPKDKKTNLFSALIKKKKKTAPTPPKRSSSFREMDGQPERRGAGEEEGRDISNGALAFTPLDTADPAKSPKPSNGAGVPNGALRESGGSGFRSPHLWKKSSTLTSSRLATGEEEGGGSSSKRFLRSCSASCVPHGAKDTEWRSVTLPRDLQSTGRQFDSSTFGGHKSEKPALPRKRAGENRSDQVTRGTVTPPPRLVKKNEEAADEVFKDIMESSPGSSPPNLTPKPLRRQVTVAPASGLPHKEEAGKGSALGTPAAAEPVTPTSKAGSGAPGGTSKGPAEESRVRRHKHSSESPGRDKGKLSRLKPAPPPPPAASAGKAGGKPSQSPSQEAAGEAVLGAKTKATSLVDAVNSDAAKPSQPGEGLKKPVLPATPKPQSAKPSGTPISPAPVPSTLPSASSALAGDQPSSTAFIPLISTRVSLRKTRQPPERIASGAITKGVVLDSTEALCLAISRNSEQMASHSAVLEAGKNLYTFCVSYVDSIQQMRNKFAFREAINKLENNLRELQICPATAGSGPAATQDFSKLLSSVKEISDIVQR
T2 sequence (P23458 849-1154): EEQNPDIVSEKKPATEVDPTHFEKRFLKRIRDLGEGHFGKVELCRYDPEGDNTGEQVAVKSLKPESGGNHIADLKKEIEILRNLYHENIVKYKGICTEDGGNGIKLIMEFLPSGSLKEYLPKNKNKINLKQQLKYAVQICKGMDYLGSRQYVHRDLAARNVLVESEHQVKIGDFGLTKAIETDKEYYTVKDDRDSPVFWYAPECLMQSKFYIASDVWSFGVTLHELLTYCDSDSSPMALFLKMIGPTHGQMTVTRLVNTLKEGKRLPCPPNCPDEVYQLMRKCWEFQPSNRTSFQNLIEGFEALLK
T1 sequence (O60674 828-1132): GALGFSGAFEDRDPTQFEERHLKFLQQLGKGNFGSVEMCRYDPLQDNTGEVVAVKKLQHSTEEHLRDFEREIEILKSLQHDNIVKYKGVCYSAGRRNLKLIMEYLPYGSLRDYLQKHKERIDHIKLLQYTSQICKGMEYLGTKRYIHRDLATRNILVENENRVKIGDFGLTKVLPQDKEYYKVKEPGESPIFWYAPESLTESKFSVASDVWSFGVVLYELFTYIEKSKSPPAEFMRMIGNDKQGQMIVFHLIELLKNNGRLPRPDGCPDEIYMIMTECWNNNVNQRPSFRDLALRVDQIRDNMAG
T3 sequence (P52333 781-1124): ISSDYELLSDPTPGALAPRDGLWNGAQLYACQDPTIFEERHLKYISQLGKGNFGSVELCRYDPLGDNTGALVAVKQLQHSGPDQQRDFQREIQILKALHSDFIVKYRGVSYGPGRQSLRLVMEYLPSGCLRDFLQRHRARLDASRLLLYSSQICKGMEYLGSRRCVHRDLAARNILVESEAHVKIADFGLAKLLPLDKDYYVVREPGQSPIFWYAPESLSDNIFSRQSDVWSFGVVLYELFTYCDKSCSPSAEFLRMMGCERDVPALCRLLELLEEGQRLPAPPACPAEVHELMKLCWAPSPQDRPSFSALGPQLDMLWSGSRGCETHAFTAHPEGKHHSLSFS

SMILES | IC50 [1] [nM] | IC50 [2] [nM] | IC50 [3] [nM] | GI50 (TF1-BCRABL1 cells) [nM]
Cc1ccc(NC(=O)c2cc(N3CCC(O)CC3)cc(C(F)(F)F)c2)cc1-c1ccc2c(c1)[nH]c1ncncc12 [Example 29, 3-(4-hydroxypiperidin-1-yl)-N-[4-methyl-3-(9H-pyrimido[4,5-b]indol-7-yl)phenyl]-5-(trifluoromethyl)benzamide] | ≤ 500 | ≤ 500 | ≤ 500 | ≤ 500
CNCc1cn(-c2cc(C(=O)Nc3ccc(C)c(-c4ccc5c(c4)[nH]c4ncncc45)c3)cc(C(F)(F)F)c2)cn1 [Example 22, 3-4-[(Methylamino)methyl]-1H-imidazol-1-yl-N-[4-methyl-3-(9H-pyrimido[4,5-b]-indol-7-yl)phenyl]-5-(trifluoromethyl)benzamide tris(trifluoroacetate)] | ≤ 500 | ≤ 500 | ≤ 500 | ≤ 500
Cc1ccc(NC(=O)c2cc(-n3cnc(CO)c3)cc(C(F)(F)F)c2)cc1-c1ccc2c(c1)[nH]c1ncncc12 [Example 21, 3-[4-(Hydroxymethyl)-1H-imidazol-1-yl]-N-[4-methyl-3-(9H-pyrimido[4,5-b]indol-7-yl)phenyl]-5-(trifluoromethyl)benzamide bis(trifluoroacetate) (salt)] | ≤ 500 | ≤ 500 | ≤ 500 | ≤ 500
Cc1ccc(NC(=O)c2cc(N3CCC(O)C3)cc(C(F)(F)F)c2)cc1-c1ccc2c(c1)[nH]c1ncncc12 (stereo not shown) [Example 34, 3-(3-hydroxypyrrolidin-1-yl)-N-[4-methyl-3-(9H-pyrimido-[4,5-b]indol-7-yl)phenyl]-5-(trifluoromethyl)benzamide] | ≤ 500 | ≤ 500 | ≤ 500 | ≤ 500
Cc1ncc(NC(=O)c2cc(NCCCN(C)C)cc(C(F)(F)F)c2)cc1-c1ccc2c(c1)[nH]c1ncncc12 [Example 77, 3-[3-(dimethylamino)propyl]amino-N-[6-methyl-5-(9H-pyrimido[4,5-b]indol-7-yl)pyridin-3-yl]-5-(trifluoromethyl)benzamide tris(trifluoroacetate)] | ≤ 500 | ≤ 500 | ≤ 500 | ≤ 500

Now from value to compound, other results behind:

IC50 [1] [nM] | IC50 [2] [nM] | IC50 [3] [nM] | SMILES | GI50 (TF1-BCRABL1 cells) [nM]
≤ 500 | ≤ 500 | ≤ 500 | Cc1ccc(NC(=O)c2cc(N3CCOCC3)cc(C(F)(F)F)c2)cc1-c1ccc2c(c1)[nH]c1ncncc12 [Example 27, N-[4-methyl-3-(9H-pyrimido-[4,5-b]indol-7-yl)phenyl]-3-morpholin-4-yl-5-(trifluoromethyl)benzamide] | ≤ 500
≤ 500 | ≤ 500 | ≤ 500 | Cc1ccc(NC(=O)c2cc(-n3cncn3)cc(C(F)(F)F)c2)cc1-c1ccc2c(c1)[nH]c1ncncc12 [Example 24, N-[4-methyl-3-(9H-pyrimido-[4,5-b]indol-7-yl)phenyl]-3-(1H-1,2,4-triazol-1-yl)-5-(trifluoromethyl)benzamide] | ≤ 500
≤ 500 | ≤ 500 | ≤ 500 | Cc1ccc(NC(=O)c2cc(C(F)(F)F)cc(C(F)(F)F)c2)cc1-c1ccc2c(c1)[nH]c1ncncc12 [Example 9, N-[4-methyl-3-(9H-pyrimido-[4,5-b]indol-7-yl)phenyl]-3,5-bis(trifluoromethyl)benzamide] | ≤ 500
≤ 500 | ≤ 500 | ≤ 500 | Cc1ncc(NC(=O)c2cc(-n3cncn3)cc(C(F)(F)F)c2)cc1-c1ccc2c(c1)[nH]c1ncncc12 [Example 73, N-[6-methyl-5-(9H-pyrimido[4,5-b]indol-7-yl)pyridin-3-yl]-3-(1H-1,2,4-triazol-1-yl)-5-(trifluoromethyl)benzamide bis(trifluoroacetate)] | ≤ 500
≤ 500 | ≤ 500 | ≤ 500 | Cc1ncc(NC(=O)c2cc(-n3cnc(C=O)c3)cc(C(F)(F)F)c2)cc1-c1ccc2c(c1)[nH]c1ncncc12 [Example 74, 3-(4-formyl-1H-imidazol-1-yl)-N-[6-methyl-5-(9H-pyrimido[4,5-b]indol-7-yl)pyridin-3-yl]-5-(trifluoromethyl)benzamide bis(trifluoroacetate)] | ≤ 500
